# Measurements published in US20030224942A1, “Alkylamino-1,3,5-triazines, processes for their preparation and their use as herbicides and plant growth regulators” (priority 2001, published 2003).
# Key:
# [1] = tested on: Chenopodium spp., Papaver spp., Polygonum spp., Veronica spp. or Viola spp.; experiment: Post-emergence effect on weeds (greenhouse pot test, visual scoring); assay type: in vivo, monocotyledonous and dicotyledonous weeds; conditions: treated at three-leaf stage; visual scoring after about 3 to 4 weeks; application rate of 0.5 kg and less of active substance per hectare
# [2] = tested on: Cyperus spp., Echinochloa spp., Digitaria spp., Sagitaria spp. and Scirpus spp.; experiment: Action on harmful plants in rice (paddy rice conditions, visual scoring); assay type: in vivo, typical rice weeds (gramineous and broad-leaved); conditions: applied into the dammed water, visual scoring about three weeks after application
# Excerpt: Transplanted and sown rice and also typical rice weeds (gramineous and broad-leaved) are cultivated in closed plastic pots in a greenhouse to the three-leaf stage (Echinochloa crus-galli 1.5-leaf) under paddy rice conditions (dammed height of water: 2-3 cm). This is followed by treatment with the compounds according to the invention. […] After this treatment, the test plants are set up in a greenhouse under optimum growth conditions and are maintained in this way throughout the test period.
SMILES,herbicidal activity post-emergence against harmful plants [1],herbicidal activity against harmful plants which are typical for rice crops [2]
CC#Cc1cccc(CNc2nc(N)nc(C(C)(C)F)n2)c1 [Product P16.1582],very good herbicidal activity,very good herbicidal activity
C#Cc1c(C)cc(C(C)Nc2nc(N)nc(C(C)F)n2)cc1C (stereo not shown) [Product P22.348],very good herbicidal activity,very good herbicidal activity
CC#Cc1c(F)cc(C(Nc2nc(N)nc(C(C)C)n2)C2CC2)cc1F (stereo not shown) [Product P14.428],very good herbicidal activity,very good herbicidal activity
CC#Cc1ccc(CNc2nc(N)nc(C(F)CC)n2)cc1 (stereo not shown) [Product P26.1583],very good herbicidal activity,very good herbicidal activity
CC#Cc1cccc(CNc2nc(N)nc(C(C)F)n2)c1 (stereo not shown) [Product P21.1582],very good herbicidal activity,very good herbicidal activity
CC#Cc1c(F)cc(C(Nc2nc(N)nc(C(F)CC)n2)C2CC2)cc1F (stereo not shown) [Product P29.428],very good herbicidal activity,very good herbicidal activity
C#Cc1ccc(C(C)Nc2nc(N)nc(C(C)(C)F)n2)cc1C (stereo not shown) [Product P17.335],very good herbicidal activity,very good herbicidal activity
CC(O)C#Cc1cc(C(C)Nc2nc(N)nc(C(C)C)n2)ccc1F (stereo not shown) [Product P12.840],very good herbicidal activity,very good herbicidal activity
CCc1nc(N)nc(NC(c2cccc(C3CC3)c2)C2CC2)n1 (stereo not shown) [Product P9.1603],very good herbicidal activity,very good herbicidal activity
CC#Cc1cc(CNc2nc(C)nc(N)n2)ccc1F [Product P1.384],very good herbicidal activity,very good herbicidal activity
CC(C)c1nc(N)nc(NC(c2cccc(C(F)=C(F)F)c2)C2CC2)n1 (stereo not shown) [Product P14.1567],very good herbicidal activity,very good herbicidal activity
CC#Cc1cccc(C(C)Nc2nc(N)nc(C(C)F)n2)c1 (stereo not shown) [Product P22.1582],very good herbicidal activity,very good herbicidal activity
CCc1nc(N)nc(NC(c2ccc(C(F)=C(F)F)cc2)C2CC2)n1 (stereo not shown) [Product P9.1568],very good herbicidal activity,very good herbicidal activity
CC(F)c1nc(N)nc(NCc2ccc(F)c(C3CC3)c2)n1 (stereo not shown) [Product P21.916],very good herbicidal activity,very good herbicidal activity
CC(F)c1nc(N)nc(NC(c2cccc(C(F)=C(F)F)c2)C2CC2)n1 (stereo not shown) [Product P24.1567],very good herbicidal activity,very good herbicidal activity
CCc1nc(N)nc(NC(C)c2ccc(F)c(C(F)=C(F)F)c2)n1 (stereo not shown) [Product P7.5],very good herbicidal activity,very good herbicidal activity
CCc1nc(N)nc(NC(c2cccc(C(F)=C(F)F)c2)C2CC2)n1 (stereo not shown) [Product P9.1567],very good herbicidal activity,very good herbicidal activity
Cc1nc(N)nc(NC(C)c2ccc(F)c(C3CC3)c2)n1 (stereo not shown) [Product P2.916],very good herbicidal activity,very good herbicidal activity
CC(C)c1nc(N)nc(NC(C)c2cccc(C(F)=C(F)F)c2)n1 (stereo not shown) [Product P12.1567],very good herbicidal activity,very good herbicidal activity
C#Cc1cc(C(C)Nc2nc(C)nc(N)n2)ccc1F (stereo not shown) [Product P2.309],very good herbicidal activity,very good herbicidal activity
CC(C)c1nc(N)nc(NCc2cccc(C3CC3)c2)n1 [Product P11.1603],very good herbicidal activity,very good herbicidal activity

SMILES,herbicidal activity post-emergence against harmful plants [1],herbicidal activity against harmful plants which are typical for rice crops [2]
CC#Cc1ccc(CNc2nc(N)nc(C(C)C)n2)cc1 [Product P11.1583],very good herbicidal activity,very good herbicidal activity
CC#Cc1c(F)cc(C(Nc2nc(N)nc(CC)n2)C2CC2)cc1F (stereo not shown) [Product P9.428],very good herbicidal activity,very good herbicidal activity
CC#Cc1c(F)cc(C(Nc2nc(N)nc(C(C)(C)F)n2)C2CC2)cc1F (stereo not shown) [Product P19.428],very good herbicidal activity,very good herbicidal activity
CC#Cc1c(F)cc(C(C)Nc2nc(N)nc(C(F)CC)n2)cc1F (stereo not shown) [Product P27.428],very good herbicidal activity,very good herbicidal activity
CC(C)(F)c1nc(N)nc(NCc2ccc(F)c(C3CC3)c2)n1 [Product P16.916],very good herbicidal activity,very good herbicidal activity
C#Cc1cc(C(Nc2nc(N)nc(C(C)C)n2)C2CC2)ccc1F (stereo not shown) [Product P14.309],very good herbicidal activity,very good herbicidal activity
CCC(F)c1nc(N)nc(NC(C)c2ccc(F)c(C#CC(C)O)c2)n1 (stereo not shown) [Product P27.840],very good herbicidal activity,very good herbicidal activity
CC#Cc1cccc(C(C)Nc2nc(N)nc(CC)n2)c1 (stereo not shown) [Product P7.1582],very good herbicidal activity,very good herbicidal activity
CC#Cc1cccc(C(Nc2nc(N)nc(C(C)C)n2)C2CC2)c1 (stereo not shown) [Product P14.1582],very good herbicidal activity,very good herbicidal activity
CCc1nc(N)nc(NC(C)c2cc(F)c(C(F)=C(F)F)c(F)c2)n1 (stereo not shown) [Product P7.49],very good herbicidal activity,very good herbicidal activity
CC(C)c1nc(N)nc(NC(C)c2ccc(C(F)=C(F)F)cc2)n1 (stereo not shown) [Product P12.1568],very good herbicidal activity,very good herbicidal activity
CC(F)c1nc(N)nc(NC(c2cccc(C3CC3)c2)C2CC2)n1 (stereo not shown) [Product P24.1603],very good herbicidal activity,very good herbicidal activity
CC(Nc1nc(N)nc(C(C)(C)F)n1)c1ccc(F)c(C2CC2)c1 (stereo not shown) [Product P17.916],very good herbicidal activity,very good herbicidal activity
Cc1nc(N)nc(NCc2ccc(F)c(C(F)=C(F)F)c2)n1 [Product P1.5],very good herbicidal activity,very good herbicidal activity
C#Cc1cc(C(Nc2nc(N)nc(C(F)CC)n2)C2CC2)ccc1F (stereo not shown) [Product P29.309],very good herbicidal activity,very good herbicidal activity
C#Cc1cc(C(C)Nc2nc(N)nc(C(F)CC)n2)ccc1F (stereo not shown) [Product P27.309],very good herbicidal activity,very good herbicidal activity
CC(Nc1nc(N)nc(C(C)(C)F)n1)c1cc(F)c(C(F)=C(F)F)c(F)c1 (stereo not shown) [Product P17.49],very good herbicidal activity,very good herbicidal activity
C#Cc1cccc(C(Nc2nc(N)nc(C(C)(C)F)n2)C2CC2)c1 (stereo not shown) [Product P19.1579],very good herbicidal activity,very good herbicidal activity
CC#Cc1c(F)cc(C(C)Nc2nc(N)nc(C(C)(C)F)n2)cc1F (stereo not shown) [Product P17.428],very good herbicidal activity,very good herbicidal activity
CCC(F)c1nc(N)nc(NC(C)c2ccc(F)c(C3CC3)c2)n1 (stereo not shown) [Product P27.916],very good herbicidal activity,very good herbicidal activity
